Source: paper PMC11012289, “The Discovery of New Inhibitors of Insulin-Regulated Aminopeptidase by a High-Throughput Screening of 400,000 Drug-like Compounds” (International Journal of Molecular Sciences, 2024)
Like-named read-outs stand apart in the source and are kept apart here. Where no end group is shown, it is not given here. [ ]: non-standard residue; d: D form. Nle = CCCC[C@H](N)C(=O)O

Tests used:
[1] = tested on: primary hippocampal neuron cultures; set-up: method as in PMID 26769413, PMID 36286055; details: cited from earlier work
[2] = tested on: APN, ERAP1, ERAP2, and LTA4H; details: cited from earlier work
IRAP [3] = biological target: IRAP; set-up: method as in PMID 18716029; details: cited from earlier work
rodents = tested on: rodents; set-up: method as in PMID 19233301, PMID 18716029; details: intracerebroventricular administration; cited from earlier work
[4] = cited from earlier work
IRAP [5] = biological target: T1, IRAP (Homo sapiens, UniProt Q9UIQ6); experiment: Deselection fluorescence IRAP assay with 10 µM zinc; format: biochemical; details: 10 µM ZnSO4 in assay buffer; for IC50: read-out: Fluorescence + Zn pIC50 (converted)
T1 construct: The screen was performed with the soluble truncated IRAP enzyme; made in house

IRAP [6] = biological target: T1, IRAP; experiment: Primary fluorescence IRAP assay (L-Leucine-7-amido-4-methylcoumarin cleavage); format: biochemical; details: for IC50 / Fluorescence pIC50: 37.5 µM L-Leucine-7-amido-4-methylcoumarin, 60 min RT, dose-response 20 µM-27.4 nM; for IC50: read-out: Fluorescence IC50; for LipE: calculated from (pIC50Fluorescence − LogD)
IRAP [7] = biological target: T1, IRAP; experiment: Thermal shift (TSA) IRAP assay; format: binding; details: screening hits at 30 µM, 1% DMSO
IRAP [8] = biological target: T1, IRAP; experiment: Orthogonal absorbance IRAP assay (L-Leucine para-nitroanilide cleavage); format: biochemical; details: 1 mM L-Leucine p-Nitroanilide, 120 min RT; for IC50: read-out: Absorbance pIC50 (converted)
In short: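 Absorbance assay: IRAP protein at 2.5 × 10^−4 mg/mL final with 1 mM L-leucine para-nitroanilide in buffer containing 0.05% BSA; 120 min at RT in the dark. para-Nitroaniline read at 405 nm. Dose–response spanned 20 μM–27.4 nM compound, 1% DMSO.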

[9] = set-up: method as in ELF screening history; details: ref ELF screening history, cited from earlier work; for Enzyme Active: number of ELF enzyme screens in which the compound was active; for Targets active: number of ELF screens in which the compound was active; for Enzyme Active %: share of ELF enzyme targets screened; for Targets Active %: share of all ELF targets screened
rats = details: cited from earlier work
IRAP [10] = details: read-out: Ki (affinity to IRAP); cited from earlier work

T1 sequence (Q9UIQ6 155-1025 limits assumed): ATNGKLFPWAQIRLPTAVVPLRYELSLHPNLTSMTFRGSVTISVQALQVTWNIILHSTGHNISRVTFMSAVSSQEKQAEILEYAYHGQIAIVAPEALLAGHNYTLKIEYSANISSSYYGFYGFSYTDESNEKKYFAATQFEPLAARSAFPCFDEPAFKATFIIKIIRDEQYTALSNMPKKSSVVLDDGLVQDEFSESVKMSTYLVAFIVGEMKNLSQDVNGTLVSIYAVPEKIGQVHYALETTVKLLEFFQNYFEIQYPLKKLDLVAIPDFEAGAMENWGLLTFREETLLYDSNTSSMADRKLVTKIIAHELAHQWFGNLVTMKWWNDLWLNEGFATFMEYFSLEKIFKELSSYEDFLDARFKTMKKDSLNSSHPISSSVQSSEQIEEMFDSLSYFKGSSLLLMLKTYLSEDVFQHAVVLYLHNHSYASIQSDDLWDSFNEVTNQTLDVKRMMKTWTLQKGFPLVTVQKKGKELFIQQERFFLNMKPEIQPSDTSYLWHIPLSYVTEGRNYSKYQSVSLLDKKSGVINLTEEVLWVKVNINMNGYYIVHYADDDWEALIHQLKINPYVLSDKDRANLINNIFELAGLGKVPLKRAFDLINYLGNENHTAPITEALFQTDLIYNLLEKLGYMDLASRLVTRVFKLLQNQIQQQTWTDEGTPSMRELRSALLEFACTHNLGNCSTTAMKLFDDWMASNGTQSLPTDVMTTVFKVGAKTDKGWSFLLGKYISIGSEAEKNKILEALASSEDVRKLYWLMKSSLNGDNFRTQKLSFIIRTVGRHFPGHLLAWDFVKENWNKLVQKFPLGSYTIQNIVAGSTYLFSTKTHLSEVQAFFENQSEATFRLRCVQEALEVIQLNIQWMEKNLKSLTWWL

Row | Compound | IC50 (IRAP [6]) | LipE (IRAP [6]) | Enzyme Active [9] | Targets active [9] | Enzyme Active % [9] | Targets Active % [9] | Fluorescence + Zn pIC50 (IRAP [5]) | Fluorescence pIC50 (IRAP [6]) | TSA (∆°C), thermal shift of IRAP (IRAP [7]) | Absorbance pIC50 (IRAP [8]) | other results
1 | N[C@H]1CCSSC[C@@H](C(=O)NCc2ccccc2CC(=O)O)NC(=O)C[C@H](Cc2ccc(O)cc2)NC1=O [HA08] |  |  |  |  |  |  |  |  |  |  | effect on hydrogen peroxide-induced toxicity [1]: reversed hydrogen peroxide-induced toxicity; effect on spine density [1]: enhanced spine densities
2 | CCOC(=O)C1=C(NC(C)=O)Oc2cc(O)ccc2C1c1cccnc1 (stereo not shown) [HFI-419] |  |  |  |  |  |  |  |  |  |  | selectivity versus other aminopeptidases [2]: high selectivity; Ki (IRAP [3]): 0.42 µM; effect on cognition (rodents): cognitive-enhancing effect
3 | CCOC(=O)C1=C(NC(C)=O)Oc2cc(O)ccc2C1c1cnc2ccccc2c1 (stereo not shown) [HFI-437] |  |  |  |  |  |  |  |  |  |  | Ki (IRAP [3]): 0.02 µM
4 | CC[C@H](C)[C@H](NC(=O)[C@H](Cc1ccc(O)cc1)NC(=O)[C@@H](CN)C(C)C)C(=O)N[C@H]1Cc2c([nH]c3ccccc23)CN(CC(=O)N[C@@H](Cc2ccccc2)C(=O)O)C1=O [IVDE77] |  |  |  |  |  |  |  |  |  |  | metabolic stability [4]: improved metabolic stability
5 | NCC[C@H]1CCCCN1C(=O)Cn1nc(-c2ccc(Cl)nc2)c2c1CCCC2 [QHL38] | 4.68 µM | 3.06 | 5 | 9 | 6.3% | 6.5% |  |  |  |  | IC50 (IRAP [5]): 4.57 µM; ΔTm at 30 µM (IRAP [7]): 2.22 °C; IC50 (IRAP [8]): 11 µM
6 | CCOC(=O)c1c(Cl)cc(C)nc1N1CCCC(Cc2ccc(C(=O)N(C)C)cc2)C1 (stereo not shown) [QHL39] | 4.68 µM | 0.66 | 6 | 7 | 7.1% | 4.9% | 5.33 | 5.33 | 0 °C | 5.12 | 
7 | O=C1CN(c2cc(=O)n3ccn(Cc4ccc(F)cc4Cl)c3n2)CCN1 [QHL40] | 4.68 µM | 4.38 | 4 | 6 | 4.3% | 4.2% |  |  |  |  | IC50 (IRAP [5]): 5.25 µM; ΔTm at 30 µM (IRAP [7]): 0.3 °C; IC50 (IRAP [8]): > 20 µM
8 | CCCCc1nc2ccn(Cc3cccc(C#N)c3)c(=O)c2n1Cc1cccc(C#N)c1 [QHL41] | 4.68 µM | 0.59 | 6 | 8 | 7.6% | 5.5% | 5.11 | 5.33 | 0.44 °C | 5.81 | 
9 | NC(=O)CCc1ccc2c(c1)nc(N)n2Cc1ccc(-c2ccccc2)cc1 [QHL42] | 4.79 µM | 1.29 | 6 | 12 | 7.3% | 8.1% | 5.32 | 5.32 | 2.96 °C | 5.40 | 
10 | c1scc2c(N3CCCCCC3)nc(N3CCC3)nc12 [QHL44] | 6.46 µM | 1.50 | 4 | 6 | 4.3% | 4.0% | 5.18 | 5.19 | 0.44 °C | < 4.70 | 
11 | CCn1c(=O)n(CC(=O)N(C)CCc2ccc(O)c3[nH]c(=O)sc23)c2ccccc21 [QHL45] | 7.76 µM | 2.74 | 5 | 11 | 6.0% | 7.9% | 5.12 | 5.11 | 0.89 °C | 6.09 | 
12 | COCCN1CCc2cnc(NCc3ccc(S(N)(=O)=O)cc3)cc21 [QHL47] | 10.2 µM | 3.57 | 4 | 6 | 4.7% | 4.2% | 4.99 | 4.99 | 0.3 °C | 5.51 | 
13 | Cc1cc2nc(N)n(Cc3ccccc3)c2cc1C [QHL49] | 17.8 µM | 0.76 | 4 | 9 | 4.9% | 6.2% | 4.74 | 4.75 | 0.44 °C | 5.65 | 
14 | c1ccn(CCCSc2nnc3ccc(N4CCCC4)nn23)c1 [QHL50] | 18.2 µM | 2.06 | 7 | 11 | 8.1% | 7.6% | 4.7 | 4.74 | 0.44 °C | 5.36 | 
15 | Leu-Val-Val-Tyr-Pro-Trp-Thr-Gln-Arg-Phe (LVVYPWTQRF; printed: Leu-Val-Val-Tyr-Pro-Trp-Thr-Gln-Arg-Phe) [LVV-hemorphin-7, structural analog of Ang IV] |  |  |  |  |  |  |  |  |  |  | effect on memory retention and retrieval (rats): strong promoters of memory retention and retrieval
16 | Nle-Tyr-Ile-His-Pro-Phe ([Nle]YIHPF) [Nle-Ang IV, structural analog of Ang IV] |  |  |  |  |  |  |  |  |  |  | effect on memory retention and retrieval (rats): strong promoters of memory retention and retrieval
17 | Val-Tyr-Ile-His-Pro-Phe [Ang IV] |  |  |  |  |  |  |  |  |  |  | Ki (IRAP [10]): 0.062 µM; effect on memory and learning (rats; intracerebroventricular injection): improved memory and learning
